Reference: US12655116B2, “Substituted isophthalic acid diamides” (Bayer Aktiengesellschaft, priority 2020, dated 2026)

What was measured:
[1] = test system: ABUTH; assay: Pre-emergence herbicidal action against ABUTH; format: in vivo, Abutilon theophrasti
Procedure, shortened: (§1)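 Pre-emergence soil-surface spray of formulated compound (WP or EC; 600 to 800 l/ha; 0.2% wetting agent) over seeds sown in sandy loam. After 3 weeks under greenhouse conditions, damage is estimated visually in percent against untreated plants.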

[2] = test system: ALOMY; assay: Pre-emergence herbicidal action against ALOMY; format: in vivo, Alopecurus myosuroides; conditions: 80 g/ha, pre-emergence, scored visually after 3 weeks vs untreated controls (100% = plants have died, 0% = like control plants)
Procedure, shortened: as §1

[3] = test system: AMARE; assay: Pre-emergence herbicidal action against AMARE; format: in vivo, Amaranthus retroflexus
Procedure, shortened: as §1

[4] = test system: AVEFA; assay: Pre-emergence herbicidal action against AVEFA; format: in vivo, Avena fatua; conditions: Avena fatua, 504 h; 80 g/ha, pre-emergence
Procedure, shortened: as §1

[5] = test system: ECHCG; assay: Pre-emergence herbicidal action against ECHCG; format: in vivo, Echinochloa crus-galli; conditions: 80 g/ha
Procedure, shortened: as §1

[6] = test system: MATIN; assay: Pre-emergence herbicidal action against MATIN; format: in vivo, Matricaria inodora
Procedure, shortened: as §1

[7] = test system: PHBPU; assay: Pre-emergence herbicidal action against PHBPU; format: in vivo, Pharbitis purpurea
Procedure, shortened: as §1

[8] = test system: POLCO; assay: Pre-emergence herbicidal action against POLCO; format: in vivo, Polygonum convolvulus; conditions: dosage 80 g/ha
Procedure, shortened: as §1

[9] = test system: SETVI; assay: Pre-emergence herbicidal action against SETVI; format: in vivo, Setaria viridis; conditions: dosage 80 g/ha
Procedure, shortened: as §1

[10] = test system: VERPE; assay: Pre-emergence herbicidal action against VERPE; format: in vivo, Veronica persica; conditions: Veronica persica, 504 h, dosage 80 g/ha
Procedure, shortened: as §1

[11] = test system: VIOTR; assay: Pre-emergence herbicidal action against VIOTR; format: in vivo, Viola tricolor
Procedure, shortened: as §1

[12] = test system: DIGSA; assay: Pre-emergence herbicidal action against DIGSA; format: in vivo, Digitaria sanguinalis
Procedure, shortened: as §1

[13] = test system: ABUTH; assay: Post-emergence herbicidal action against ABUTH; format: in vivo, Abutilon theophrasti; conditions: visual assessment about 3 weeks after treatment vs untreated controls
Procedure, shortened: (§2)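 Spray, one-leaf stage: WP or EC compound in water, 600–800 l/ha, 0.2% wetting agent. Plants held about 3 weeks in the greenhouse, then visually rated in percent of kill compared with untreated controls.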

[14] = test system: AMARE; assay: Post-emergence herbicidal action against AMARE; format: in vivo, Amaranthus retroflexus; conditions: 20 g/ha, visual assessment about 3 weeks after treatment, 100% = plants have died, 0% = like control plants
Procedure, shortened: as §2

[15] = test system: AVEFA; assay: Post-emergence herbicidal action against AVEFA; format: in vivo, Avena fatua; conditions: 20 g/ha, visual assessment about 3 weeks after treatment, 100% = plants have died, 0% = like control plants
Procedure, shortened: as §2

[16] = test system: ECHCG; assay: Post-emergence herbicidal action against ECHCG; format: in vivo, Echinochloa crus-galli
Procedure, shortened: as §2

[17] = test system: MATIN; assay: Post-emergence herbicidal action against MATIN; format: in vivo, Matricaria inodora
Procedure, shortened: as §2

[18] = test system: PHBPU; assay: Post-emergence herbicidal action against PHBPU; format: in vivo, Pharbitis purpurea
Procedure, shortened: as §2

[19] = test system: SETVI; assay: Post-emergence herbicidal action against SETVI; format: in vivo, Setaria viridis
Procedure, shortened: as §2

[20] = test system: VERPE; assay: Post-emergence herbicidal action against VERPE; format: in vivo, Veronica persica
Procedure, shortened: as §2

[21] = test system: VIOTR; assay: Post-emergence herbicidal action against VIOTR; format: in vivo, Viola tricolor
Procedure, shortened: as §2

[22] = test system: DIGSA; assay: Post-emergence herbicidal action against DIGSA; format: in vivo, Digitaria sanguinalis
Procedure, shortened: as §2

[23] = test system: ALOMY; assay: Post-emergence herbicidal action against ALOMY; format: in vivo, Alopecurus myosuroides; conditions: dosage 20 g/ha, visual assessment about 3 weeks after treatment vs untreated controls
Procedure, shortened: as §2

[24] = Tripleurospermum inodorum, 504 h, dosage 20 g/ha
[25] = Ipomoea purpurea, 504 h, dosage 20 g/ha
[26] = 80 g/ha, scored visually after 3 weeks vs untreated controls (100% = plants have died, 0% = like control plants)

CCc1c(C(=O)Nc2nnnn2C)ccc(C(F)F)c1C(=O)NC [Example 1-277]
pest or weed control at 80 g/ha ([1]; Abutilon theophrasti, 504 h, 80 g/ha, scored visually after 3 weeks vs untreated controls (100% = plants have died, 0% = like control plants)): 100%
pest or weed control at 20 g/ha ([1]; Abutilon theophrasti, 504 h, dosage 20 g/ha, scored visually after 3 weeks vs untreated controls, 100% = plants have died, 0% = like control plants, read-out: Pre-emergence action against ABUTH (herbicidal activity in percent)): 90%
pest or weed control at 80 g/ha ([2]; Alopecurus myosuroides, 504 h): 90%
pest or weed control at 20 g/ha ([3]; Amaranthus retroflexus, 504 h, 20 g/ha, scored visually after 3 weeks vs untreated controls, 100% = plants have died, 0% = like control plants): 100%
pest or weed control at 80 g/ha ([3]; Amaranthus retroflexus, 504 h, 80 g/ha, scored visually after 3 weeks vs untreated controls, 100% = plants have died, 0% = like control plants): 100%
pest or weed control at 80 g/ha [4]: 90%
pest or weed control at 80 g/ha ([5]; Echinochloa crus-galli, 504 h): 90%
pest or weed control at 20 g/ha [6, 24]: 90%
pest or weed control at 80 g/ha ([6]; Tripleurospermum inodorum, 504 h, dosage 80 g/ha): 100%
pest or weed control at 20 g/ha [7, 25]: 80%
pest or weed control at 80 g/ha ([7]; Ipomoea purpurea, 504 h, dosage 80 g/ha): 90%
pest or weed control at 80 g/ha ([8]; Fallopia convolvulus, 504 h): 90%
pest or weed control at 80 g/ha ([9]; Setaria viridis, 504 h): 100%
pest or weed control at 80 g/ha [10]: 90%
pest or weed control at 20 g/ha ([11]; Viola tricolor, 504 h, dosage 20 g/ha): 100%
pest or weed control at 80 g/ha ([11]; Viola tricolor, 504 h, dosage 80 g/ha): 100%
pest or weed control at 20 g/ha ([12]; Digitaria sanguinalis, 504 h, dosage 20 g/ha): 100%
pest or weed control at 80 g/ha ([12]; Digitaria sanguinalis, 504 h, dosage 80 g/ha): 100%
pest or weed control at 5 g/ha ([13]; Abutilon theophrasti, 504 h, dosage 5 g/ha): 90%
pest or weed control at 20 g/ha ([13]; Abutilon theophrasti, 504 h, dosage 20 g/ha): 90%
pest or weed control at 20 g/ha ([14]; Amaranthus retroflexus, 504 h): 100%
pest or weed control at 20 g/ha ([15]; Avena fatua, 504 h): 80%
pest or weed control at 20 g/ha ([16]; Echinochloa crus-galli, 504 h, dosage 20 g/ha): 90%
pest or weed control at 5 g/ha ([17]; Tripleurospermum inodorum, 504 h, dosage 5 g/ha): 90%
pest or weed control at 20 g/ha [17, 24]: 90%
pest or weed control at 5 g/ha ([18]; Ipomoea purpurea, 504 h, dosage 5 g/ha): 90%
pest or weed control at 20 g/ha [18, 25]: 90%
pest or weed control at 5 g/ha ([19]; Setaria viridis, 504 h, dosage 5 g/ha): 90%
pest or weed control at 20 g/ha ([19]; Setaria viridis, 504 h, dosage 20 g/ha): 90%
pest or weed control at 5 g/ha ([20]; Veronica persica, 504 h, 5 g/ha): 80%
pest or weed control at 20 g/ha ([20]; Veronica persica, 504 h, 20 g/ha): 90%
pest or weed control at 5 g/ha ([21]; Viola tricolor, 504 h, 5 g/ha): 80%
pest or weed control at 20 g/ha ([21]; Viola tricolor, 504 h, 20 g/ha): 90%
pest or weed control at 5 g/ha ([22]; Digitaria sanguinalis, 504 h, 5 g/ha): 90%
pest or weed control at 20 g/ha ([22]; Digitaria sanguinalis, 504 h, 20 g/ha): 90%

Cn1nnnc1NC(=O)c1ccc(C(F)(F)F)c(C(=O)NCC(F)F)c1C1CC1 [Example 1-291]
Pre-emergence action against ABUTH (herbicidal activity) [1, 26]: 100%
Pre-emergence action against ABUTH (herbicidal activity in percent) ([1]; dosage 20 g/ha, scored visually after 3 weeks vs untreated controls, 100% = plants have died, 0% = like control plants): 100%
Pre-emergence action against ALOMY (herbicidal activity) [2]: 80%
Pre-emergence action against AMARE in % ([3]; 20 g/ha, scored visually after 3 weeks vs untreated controls, 100% = plants have died, 0% = like control plants): 100%
Pre-emergence action against AMARE in % [3, 26]: 100%
Pre-emergence action against ECHCG in % [5]: 90%
Pre-emergence action against MATIN in % ([6]; dosage 20 g/ha): 90%
Pre-emergence action against MATIN in % ([6]; dosage 80 g/ha): 100%
Pre-emergence action against PHBPU in % ([7]; dosage 80 g/ha): 80%
Pre-emergence action against POLCO in % [8]: 80%
Pre-emergence action against SETVI in % [9]: 100%
Pre-emergence action against VIOTR in % ([11]; dosage 20 g/ha): 100%
Pre-emergence action against VIOTR in % ([11]; dosage 80 g/ha): 100%
Pre-emergence action against DIGSA in % ([12]; dosage 20 g/ha): 100%
Pre-emergence action against DIGSA in % ([12]; dosage 80 g/ha): 100%
Post-emergence action against ABUTH in % ([13]; dosage 5 g/ha): 80%
Post-emergence action against ABUTH in % ([13]; dosage 20 g/ha): 90%
Post-emergence action against ALOMY in % [23]: 90%
Post-emergence action at 20 g/ha against AMARE in % [14]: 90%
Post-emergence action at 20 g/ha against AVEFA in % [15]: 80%
Post-emergence action against ECHCG in % ([16]; dosage 5 g/ha): 80%
Post-emergence action against ECHCG in % ([16]; dosage 20 g/ha): 80%
Post-emergence action against MATIN in % ([17]; dosage 5 g/ha): 80%
Post-emergence action against MATIN in % ([17]; dosage 20 g/ha): 90%
Post-emergence action against PHBPU in % ([18]; dosage 5 g/ha): 80%
Post-emergence action against PHBPU in % ([18]; dosage 20 g/ha): 90%
Post-emergence action against SETVI in % ([19]; dosage 20 g/ha): 80%
Post-emergence action against VERPE in % ([20]; 20 g/ha): 80%
Post-emergence action against VIOTR in % ([21]; 5 g/ha): 90%
Post-emergence action against VIOTR in % ([21]; 20 g/ha): 100%
Post-emergence action against DIGSA in % ([22]; 5 g/ha): 90%
Post-emergence action against DIGSA ([22]; 20 g/ha): 100%
